The test deals with T1, human PAH with the R408W mutation (Homo sapiens, UniProt P00439, R408W).
T1 construct: expressed in transfected cells
T1 sequence (P00439 1-452 R408W): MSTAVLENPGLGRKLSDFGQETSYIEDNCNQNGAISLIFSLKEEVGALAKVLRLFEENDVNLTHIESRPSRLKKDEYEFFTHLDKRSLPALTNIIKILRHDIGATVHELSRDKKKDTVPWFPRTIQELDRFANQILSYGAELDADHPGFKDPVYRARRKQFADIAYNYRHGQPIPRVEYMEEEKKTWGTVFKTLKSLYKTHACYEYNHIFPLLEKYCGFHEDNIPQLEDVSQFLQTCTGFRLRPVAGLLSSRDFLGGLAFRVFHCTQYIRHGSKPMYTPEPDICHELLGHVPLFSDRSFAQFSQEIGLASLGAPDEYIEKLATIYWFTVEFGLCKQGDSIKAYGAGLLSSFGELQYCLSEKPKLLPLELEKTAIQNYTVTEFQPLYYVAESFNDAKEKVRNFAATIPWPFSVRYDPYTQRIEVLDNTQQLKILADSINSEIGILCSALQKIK
The test is described as follows: Cell Based Phenylalanine Flux Assay.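 Also: after compound treatment, cells received sepiapterin plus isotope-labelled Phenylalanine for 4 hours, then labelled Tyrosine in the medium was quantified, 10-point 2-fold dilution series run in duplicate.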 To be noted: A375 cells expressing human R408W PAH; 24 hrs compound incubation; 13C-Tyrosine by LC-MS; average where tested multiple times; read-out: AC50.
On to `O=C(c1nnc(C2CC2)o1)N1CCc2[nH]cnc2[C@@H]1c1cc2c(Cl)cccn2n1` [Example 1095, (R)-(4-(4-chloropyrazolo[1,5-a]pyridin-2-yl)-6,7-dihydro-1H-imidazo[4,5-c]pyridin-5(4H)-yl)(5-cyclopropyl-1,3,4-oxadiazol-2-yl)methanone], for which the AC50 (commonly the concentration at which the activity in the assay is half-maximal) was greater than 5 µM.

With `COc1ccc(-c2nnc(C(=O)N3CCc4[nH]cnc4[C@@H]3c3cc4cccc(Cl)n4n3)o2)nc1` [Example 1096, (R)-(4-(7-chloropyrazolo[1,5-a]pyridin-2-yl)-6,7-dihydro-1H-imidazo[4,5-c]pyridin-5(4H)-yl)(5-(5-methoxypyridin-2-yl)-1,3,4-oxadiazol-2-yl)methanone], the AC50 was greater than 5 µM. For `COc1ccc(-c2nnc(C(=O)N3CCc4[nH]cnc4[C@H]3c3cc4cccc(Cl)n4n3)o2)nc1` [Example 1097, (S)-(4-(7-chloropyrazolo[1,5-a]pyridin-2-yl)-6,7-dihydro-1H-imidazo[4,5-c]pyridin-5(4H)-yl)(5-(5-methoxypyridin-2-yl)-1,3,4-oxadiazol-2-yl)methanone] the value was 0.5 to 1 µM; for `Cn1cnc(-c2nnc(C(=O)N3CCc4[nH]cnc4[C@@H]3c3cc4cccc(Cl)n4n3)o2)c1` [Example 1098, (R)-(4-(7-chloropyrazolo[1,5-a]pyridin-2-yl)-6,7-dihydro-1H-imidazo[4,5-c]pyridin-5(4H)-yl)(5-(1-methyl-1H-imidazol-4-yl)-1,3,4-oxadiazol-2-yl)methanone], greater than 5 µM. With `Cn1cnc(-c2nnc(C(=O)N3CCc4[nH]cnc4[C@H]3c3cc4cccc(Cl)n4n3)o2)c1` [Example 1099, (S)-(4-(7-chloropyrazolo[1,5-a]pyridin-2-yl)-6,7-dihydro-1H-imidazo[4,5-c]pyridin-5(4H)-yl)(5-(1-methyl-1H-imidazol-4-yl)-1,3,4-oxadiazol-2-yl)methanone], the half-maximal activity concentration (AC50) fell in the range of 0.5 to 1 µM.

Regarding `Cn1cc(-c2nnc(C(=O)N3CCc4[nH]cnc4[C@H]3c3cc4ccc(F)cn4n3)o2)cn1` [Example 1100, (S)-(4-(6-fluoropyrazolo[1,5-a]pyridin-2-yl)-6,7-dihydro-1H-imidazo[4,5-c]pyridin-5(4H)-yl)(5-(1-methyl-1H-pyrazol-4-yl)-1,3,4-oxadiazol-2-yl)methanone], the AC50 was in the range of 0.5 to 1 µM. For `Cn1cc(-c2nnc(C(=O)N3CCc4[nH]cnc4[C@@H]3c3cc4ccc(F)cn4n3)o2)cn1` [Example 1101, (R)-(4-(6-fluoropyrazolo[1,5-a]pyridin-2-yl)-6,7-dihydro-1H-imidazo[4,5-c]pyridin-5(4H)-yl)(5-(1-methyl-1H-pyrazol-4-yl)-1,3,4-oxadiazol-2-yl)methanone], the AC50 is greater than 5 µM.

Regarding `Cn1ccc(-c2nnc(C(=O)N3CCc4[nH]cnc4[C@H]3c3cc4ccc(F)cn4n3)o2)n1` [Example 1102, (S)-(4-(6-fluoropyrazolo[1,5-a]pyridin-2-yl)-6,7-dihydro-1H-imidazo[4,5-c]pyridin-5(4H)-yl)(5-(1-methyl-1H-pyrazol-3-yl)-1,3,4-oxadiazol-2-yl)methanone], the AC50 lay in the range of 0.5 to 1 µM.

With `Cn1ccc(-c2nnc(C(=O)N3CCc4[nH]cnc4[C@@H]3c3cc4ccc(F)cn4n3)o2)n1` [Example 1103, (R)-(4-(6-fluoropyrazolo[1,5-a]pyridin-2-yl)-6,7-dihydro-1H-imidazo[4,5-c]pyridin-5(4H)-yl)(5-(1-methyl-1H-pyrazol-3-yl)-1,3,4-oxadiazol-2-yl)methanone], the AC50 is greater than 5 µM.

As to `O=C(c1ocnc1C(F)F)N1CCc2[nH]cnc2[C@@H]1c1cc2ccc(C(F)(F)F)cn2n1` [Example 1105, (R)-(4-(difluoromethyl)oxazol-5-yl)(4-(6-(trifluoromethyl)pyrazolo[1,5-a]pyridin-2-yl)-6,7-dihydro-1H-imidazo[4,5-c]pyridin-5(4H)-yl)methanone], the AC50 lay in the range of 1 to 5 µM. For `Cc1nnc(C(=O)N2CCc3[nH]cnc3[C@H]2c2cc3c(Cl)cccn3n2)o1` [Example 1106, (S)-(4-(4-chloropyrazolo[1,5-a]pyridin-2-yl)-6,7-dihydro-1H-imidazo[4,5-c]pyridin-5(4H)-yl)(5-methyl-1,3,4-oxadiazol-2-yl)methanone], the AC50 was less than 0.5 µM. In the case of `Cc1nnc(C(=O)N2CCc3[nH]cnc3[C@@H]2c2cc3c(Cl)cccn3n2)o1` [Example 1107, (R)-(4-(4-chloropyrazolo[1,5-a]pyridin-2-yl)-6,7-dihydro-1H-imidazo[4,5-c]pyridin-5(4H)-yl)(5-methyl-1,3,4-oxadiazol-2-yl)methanone], the AC50 fell in the range of 1 to 5 µM.

For the molecule `CC(C)(F)c1nnc(C(=O)N2CCc3[nH]cnc3[C@@H]2c2cc3c(Cl)cccn3n2)o1` [Example 1108, (R)-(4-(4-chloropyrazolo[1,5-a]pyridin-2-yl)-6,7-dihydro-1H-imidazo[4,5-c]pyridin-5(4H)-yl)(5-(2-fluoropropan-2-yl)-1,3,4-oxadiazol-2-yl)methanone], the AC50 is greater than 5 µM.

Take `Cc1ccc2cc([C@H]3c4nc[nH]c4CCN3C(=O)c3nnc(C(C)(C)C)o3)nn2c1` [Example 1111, (R)-(5-(tert-butyl)-1,3,4-oxadiazol-2-yl)(4-(6-methylpyrazolo[1,5-a]pyridin-2-yl)-6,7-dihydro-1H-imidazo[4,5-c]pyridin-5(4H)-yl)methanone]: the concentration at half-maximal activity (AC50) was greater than 5 µM. For `Cc1ccc2cc([C@@H]3c4nc[nH]c4CCN3C(=O)c3ccnn3C(F)F)nn2c1` [Example 1112, (S)-(1-(difluoromethyl)-1H-pyrazol-5-yl)(4-(6-methylpyrazolo[1,5-a]pyridin-2-yl)-6,7-dihydro-1H-imidazo[4,5-c]pyridin-5(4H)-yl)methanone], the half-maximal activity concentration (AC50) is less than 0.5 µM. For the molecule `Cc1ccc2cc([C@H]3c4nc[nH]c4CCN3C(=O)c3ccnn3C(F)F)nn2c1` [Example 1113, (R)-(1-(difluoromethyl)-1H-pyrazol-5-yl)(4-(6-methylpyrazolo[1,5-a)pyridin-2-yl)-6,7-dihydro-1H-imidazo[4,5-c]pyridin-5(4H)-yl)methanone], the AC50 fell in the range of 1 to 5 µM. On to `CC(C)(F)c1nnc(C(=O)N2CCc3[nH]cnc3[C@H]2c2cc3ccc(F)cn3n2)o1` [Example 1114, (S)-(5-(2-fluoropropan-2-yl)-1,3,4-oxadiazol-2-yl)(4-(6-fluoropyrazolo[1,5-a]pyridin-2-yl)-6,7-dihydro-1H-imidazo[4,5-c]pyridin-5(4H)-yl)methanone], for which the half-maximal activity concentration (AC50) lay within 0.5 to 1 µM. Consider `O=C(c1nnc(-c2ccn(C(F)F)n2)o1)N1CCc2[nH]cnc2[C@@H]1c1cc2c(Cl)cccn2n1` [Example 1119, (R)-(4-(4-chloropyrazolo[1,5-a]pyridin-2-yl)-6,7-dihydro-1H-imidazo[4,5-c]pyridin-5(4H)-yl)(5-(1-(difluoromethyl)-1H-pyrazol-3-yl)-1,3,4-oxadiazol-2-yl)methanone], for which the concentration at half-maximal activity (AC50) was greater than 5 µM.

`O=C(c1nnc(-c2cnn(C(F)F)c2)o1)N1CCc2[nH]cnc2[C@H]1c1cc2cccc(Cl)n2n1` [Example 1120, (S)-(4-(7-chloropyrazolo[1,5-a]pyridin-2-yl)-6,7-dihydro-1H-imidazo[4,5-c]pyridin-5(4H)-yl)(5-(1-(difluoromethyl)-1H-pyrazol-4-yl)-1,3,4-oxadiazol-2-yl)methanone]: the half-maximal activity concentration (AC50) was less than 0.5 µM.

For the molecule `O=C(c1nnc(-c2cnn(C(F)F)c2)o1)N1CCc2[nH]cnc2[C@@H]1c1cc2cccc(Cl)n2n1` [Example 1121, (R)-(4-(7-chloropyrazolo[1,5-a]pyridin-2-yl)-6,7-dihydro-1H-imidazo[4,5-c]pyridin-5(4H)-yl)(5-(1-(difluoromethyl)-1H-pyrazol-4-yl)-1,3,4-oxadiazol-2-yl)methanone], the concentration at half-maximal activity (AC50) lay within 1 to 5 µM. As for `CC(C)(C)c1nnc(C(=O)N2CCc3[nH]cnc3[C@@H]2c2cc3cccc(Cl)n3n2)o1` [Example 1122, (R)-(5-(tert-butyl)-1,3,4-oxadiazol-2-yl)(4-(7-chloropyrazolo[1,5-a]pyridin-2-yl)-6,7-dihydro-1H-imidazo[4,5-c]pyridin-5(4H)-yl)methanone], the AC50 is 1 to 5 µM. Take `CC(C)(C)c1nnc(C(=O)N2CCc3[nH]cnc3[C@H]2c2cc3cccc(Cl)n3n2)o1` [Example 1123, (S)-(5-(tert-butyl)-1,3,4-oxadiazol-2-yl)(4-(7-chloropyrazolo[1,5-a]pyridin-2-yl)-6,7-dihydro-1H-imidazo[4,5-c]pyridin-5(4H)-yl)methanone]: the half-maximal activity concentration (AC50) was less than 0.5 µM.

With `CC(C)(C)c1nnc(C(=O)N2CCc3[nH]cnc3[C@H]2c2cc3ccc(F)cn3n2)o1` [Example 1124, (S)-(5-(tert-butyl)-1,3,4-oxadiazol-2-yl)(4-(6-fluoropyrazolo[1,5-a]pyridin-2-yl)-6,7-dihydro-1H-imidazo[4,5-c]pyridin-5(4H)-yl)methanone], the half-maximal activity concentration (AC50) was in the range of 0.5 to 1 µM. `Cn1nc(C(F)F)nc1C(=O)N1CCc2[nH]cnc2[C@H]1c1cc2ccc(C(F)(F)F)cn2n1` [Example 1126, (S)-(3-(difluoromethyl)-1-methyl-1H-1,2,4-triazol-5-yl)(4-(6-(trifluoromethyl)pyrazolo[1,5-a]pyridin-2-yl)-6,7-dihydro-1H-imidazo[4,5-c]pyridin-5(4H)-yl)methanone]: the concentration at half-maximal activity (AC50) is less than 0.5 µM. For `Cn1ccc(-c2nnc(C(=O)N3CCc4[nH]cnc4[C@H]3c3cc4ccc(C(F)(F)F)cn4n3)o2)n1` [Example 1128, (S)-(5-(1-methyl-1H-pyrazol-3-yl)-1,3,4-oxadiazol-2-yl)(4-(6-(trifluoromethyl)pyrazolo[1,5-a]pyridin-2-yl)-6,7-dihydro-1H-imidazo[4,5-c]pyridin-5(4H)-yl)methanone], the AC50 lay in the range of 0.5 to 1 µM.

The values are drawn from patent US20230365592A1 (Agios Pharmaceuticals, Inc., priority 2022, published 2023).
